Laboratory results from patent US20070155838A1, “New Method for Treating Urinary Disorders” (Pfizer Inc, priority 2003, published 2007).

Assays:
[1] = tested on: women with urinary urgency and frequency; assay: randomized, double-blind, placebo-controlled study of tolterodine tartrate (Detrol) tablets 1 mg b.i.d. in women with urinary urgency and frequency; format: in vivo, human
Experimental: The objective of a study is to evaluate the efficacy and safety of tolterodine tartrate (Detrol®) tablets 2 mg daily versus placebo, in the treatment of urinary urgency and frequency in women, in a randomized, double-blind, placebo-controlled study. The patients received 1 mg tolterodine b.i.d. or placebo, and the dosage regime was one tablet orally, every 8-12 hours, not to exceed 2 tablets daily. The treatment duration was 10 days, after a 5 day pretreatment baseline phase. […] women were included in the study, and were randomized to either the tolterodine or placebo group. All of the subjects were eligible for intent-to-treat (ITT) and safety analysis. 1077 of the randomized subjects were included in the per-protocol analysis.
Females with symptoms urinary urgency, defined as having to stop the current activity and go immediately to the bathroom at least once a day (severe) or able to finish a task but go right to the bathroom at least twice a day (moderate), were included. Frequency was defined as >7 micturitions per 24 hours. The mean age was 48 years. About 83% of the subjects were Caucasian.
Women were asked to complete a diary recording the time of awakening; number and severity of urgency of each micturition, and the number of episodes of incontinence throughout the day as well as, time when tablets taken. The women were directed to begin using the study drug after 5 days (baseline, pretreatment period): 1 tablet every 8-12 hours not to exceed 2 tablets per day.
Thus, this study was designed to evaluate the efficacy and safety of tolterodine 1 mg twice daily, every 8-12 hours, compared to placebo, in women with urinary urgency and frequency. The primary efficacy endpoints were: • 1. Subject perception of improvement in symptoms of urgency after five days of treatment, vs. baseline period, using a three-point categorical scale (Chi Square analysis): • 2. Mean of daily average severity of urgency for urgent episodes (urgency rating score of at least 1) for the 5-day baseline period vs. first five days of treatment.
A five-point categorical scale was used to assess the severity of urgency experienced at each micturition, ranging from 0 (no discomfort) to 4 (very severe).
The secondary efficacy endpoints were: • 1. Average number of urgency episodes per day per subject for the 5-day baseline period vs. first five days of treatment. • 2. Average urgency score (severity of urgency) per subject for micturition episodes accompanied by urgency (a rating score of at least 1) for the 5-day baseline period vs. first day of treatment. • 3. Average number of micturitions per day per subject for the 5-day baseline period vs. first five days of treatment.
Subject perception of improvement in symptoms or urgency after ten days of treatment, vs. baseline period, using a three-point categorical scale (Chi Square analysis).
The sudden urge to urinate accompanied by frequency of urination is a problem for many adults. The symptoms of urgency are most problematic. Therefore, the primary variables examined the subjective perception of improvement in urgency as well as the severity of urgency in subjects treated with tolterodine 1 mg b.i.d. In addition, the frequency of urination was examined as this is a standard assessment tool commonly used to assess the efficacy of drugs for the treatment of overactive bladder syndrome.
Two populations were analyzed for efficacy: the intent-to-treat (ITT) and the per-protocol populations. The former comprised all individuals randomized to treatment. The latter consisted of those individuals who complied with the protocol with regard to eligibility, visit schedule, diary completion and treatment schedule. All randomized subjects who took study medication were included in the safety analyses. Incidence of adverse events was tabulated for all randomized subjects. […]

[2] = tested on: muscarinic receptors of the salivary gland; conditions: compared with oxybutynin; cited from earlier work
bladder = conditions: compared with oxybutynin; cited from earlier work
[3] = all analyzed time points, including day 1, compared to placebo
[4] = all analyzed time points, compared to placebo

Cc1ccc(O)c([C@H](CCN(C(C)C)C(C)C)c2ccccc2)c1 [tolterodine, (R)-N,N-diisopropyl-3-(2-hydroxy-5-methylphenyl)-3-phenylpropanamine]
subjects with AEs related to nervous system disorders ([1]; 1 mg b.i.d. oral, 10 days, placebo 2.0%): 3.0% | subjects with adverse events considered related to study medication ([1]; 1 mg b.i.d. oral, 10 days, placebo 4.7%): 4.8% | subjects with AEs related to gastrointestinal disorders ([1]; 1 mg b.i.d. oral, 10 days, placebo 4.9%): 5.6% | subjects reporting adverse events ([1]; 1 mg b.i.d. oral, 10 days, placebo 10.7%): 10.8% | subjects with AEs related to nervous system disorders (number) ([1]; 1 mg b.i.d. oral, 10 days, placebo 13): 20 subjects | subjects with adverse events considered related to study medication (number) ([1]; 1 mg b.i.d. oral, 10 days, placebo 31): thirty-two | subjects with AEs related to gastrointestinal disorders (number) ([1]; 1 mg b.i.d. oral, 10 days, placebo 32): 37 subjects | subjects reporting adverse events (number) ([1]; 1 mg b.i.d. oral, 10 days, placebo 70): Seventy-one | subjects discontinued from the study due to AEs (number) ([1]; 1 mg b.i.d. oral, 10 days, placebo four): Three | subjects reporting serious AEs (number) ([1]; 1 mg b.i.d. oral, 10 days, placebo one): Three | percentage of subjects reporting symptom improvement (subject perception of improvement in symptoms of urgency) ([1]; Day 5, 1 mg b.i.d. oral, compared to placebo): statistically significantly higher percentage | decrease in severity of urgency for all micturitions [1, 3]: statistically significantly greater decrease | decrease in severity of urgency for urgent episodes [1, 3]: statistically significantly greater decrease | decrease in the number of micturitions/day [1, 4]: statistically significantly greater decrease | reduction in the number of urgent episodes/day [1, 4]: statistically significantly greater reduction | reduction from baseline in number of micturitions/day ([1]; days 1-5, 1 mg b.i.d. oral, N=660, placebo 1.26): 1.59 | improvement from baseline in severity of urgency for urgent episodes (score, 0-4 scale) ([1]; days 1-5, 1 mg b.i.d. oral, placebo 0.19): 0.27 | affinity for muscarinic receptors of the salivary gland relative to oxybutynin [2]: eight times lower | potency in the bladder relative to oxybutynin (bladder): equipotent with oxybutynin
